Reference: patent publication EP4737448A1, “SARM1 ENZYME ACTIVITY INHIBITOR AND USE THEREOF” (Artivila (ShenZhen) Innovation Center, Ltd., priority 2023, dated 2025)
pIC50: −log10 of the molar value.

What was measured:
[1] = test system: axons of dorsal root ganglia explants; experiment: Wallerian degeneration assay of axon in mouse DRG explant culture; assay type: cell-based, C57BL/6 mice; settings: 10 µM compound, 2 h pretreatment, 24 h post axonal transection
Procedure: Dorsal root ganglia were dissected from two-month-old male C57BL/6 mice and placed into a 35-mm culture dish containing ice-cold HBSS buffer. Extra tissue surrounding each dorsal ganglion was removed using a scalpel, and the ganglia were cut into 2-3 explant pieces. These explants were seeded into wells of a 96-well plate pre-coated with 100 ng/mL Matrigel (Corning), added with 100 µL of DRG medium (Neurobasal medium (Gibco) containing 2% B-27 (Gibco), 1% GlutaMAX (Gibco) and 10 ng/mL NGF (MCE)), and cultured in a 37°C incubator for one week. The medium was half- replaced on the fourth day and the experiments were counted on the eighth day.
Refer to methods reported in literatures in the related art (Gerdts J, Sasaki Y, Vohra B, Marasa J, Milbrandt J. Image-based screening identifies novel roles for IkappaB kinase and glycogen synthase kinase 3 in axonal degeneration. J Biol Chem. 2011 Aug 12;286(32):28011-8) for the definition and measurement principle of the degeneration index of axon. In the present disclosure, the measurement method is detaild below.
0.1 µL of 10 mM compound to be tested was added to 100 µL of DRG medium to prepare a new medium containing 10 µM compound to be tested. The medium in the 96-well plate was removed and replaced with the new medium containing the compound to be tested. Explant pieces of dorsal ganglia were incubated with compounds in a 37°C incubator for 2 h of pre-protection. Following this 2-hour pretreatment, axons were transcted near the explants tissue piece using a glass microelectrode. At 0 h and 24 h post axonal transection, brightfield images of axons in the same region were captured using a microscope (Olympus) with 20× objective. Axonal integrity was assessed using an in-house developed script. The results were categorized based on the degree of protection into: (A) >50% and (B) 20-50%.

[2] = molecular target: T1, SARM1 (Homo sapiens, UniProt Q6SZW1); experiment: In vitro biochemical assay for inhibiting SARM1 enzymatic activity (PC6 fluorescence, NAD substrate, NMN activator); settings: 0.05 µg/mL SARM1, 50 µM NAD, 50 µM PC6, 50 µM NMN, 10 min pre-incubation, 30 min at room temperature
T1 construct: the inventor produces full-length SARM1 for NADase activity assays and for screening; His (C); made in house; host or cells: HEK293 cells (transient transfection; digitonin lysate supernatant, not purified further)
T1 sequence (Q6SZW1 28-724): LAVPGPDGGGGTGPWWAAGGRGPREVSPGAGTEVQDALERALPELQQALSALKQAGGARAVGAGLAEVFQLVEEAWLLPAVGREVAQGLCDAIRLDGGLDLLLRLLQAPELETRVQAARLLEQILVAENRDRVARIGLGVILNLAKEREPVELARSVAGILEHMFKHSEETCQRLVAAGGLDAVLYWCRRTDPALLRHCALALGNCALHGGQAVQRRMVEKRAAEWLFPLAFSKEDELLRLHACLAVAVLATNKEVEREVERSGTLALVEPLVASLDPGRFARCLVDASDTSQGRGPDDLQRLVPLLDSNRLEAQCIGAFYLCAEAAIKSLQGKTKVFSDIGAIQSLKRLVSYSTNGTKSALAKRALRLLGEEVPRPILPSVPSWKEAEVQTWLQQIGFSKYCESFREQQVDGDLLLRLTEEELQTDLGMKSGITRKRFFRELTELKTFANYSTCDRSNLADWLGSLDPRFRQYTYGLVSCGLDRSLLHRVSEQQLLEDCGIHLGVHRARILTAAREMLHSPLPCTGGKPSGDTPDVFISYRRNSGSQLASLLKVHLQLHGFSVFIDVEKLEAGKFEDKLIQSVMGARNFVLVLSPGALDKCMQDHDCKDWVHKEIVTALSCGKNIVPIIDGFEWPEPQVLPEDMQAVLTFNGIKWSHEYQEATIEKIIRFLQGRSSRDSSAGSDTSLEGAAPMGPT
Procedure: Compounds to be tested were stocked at 200 µM or 10 mM (in DMSO), and further diluted to the desired compound concentration for the in vitro SARM1 enzyme assay and inhibitor screening.
The gene sequence encoding SARM1 protein was amplified by PCR and the PCR amplification product was constructed into the pcDNA3.1-HIS-C plasmid. This construction was completed by YouBio Biological Technology (Hunan, China).
HEK293 cells were cultured in DMEM in a 10 cm dish. The next day, cells were transfected with 15 µg of the pcDNA3.1-SARM1-HIS-C expression plasmid.
Cells were harvested 48 hours after the transfection. The SARM1 protein expressed in cells was obtained through cell lysis by digitonin, which was used for in vitro activity assay. The specific process was as follows:
Cells were digested and detached from the dish using trypsin-EDTA, centrifuged at 1000 rpm for 5 minutes, washed once with PBS, then resuspended in PBS containing 100 µM digitonin at 0.6 mL PBS for the cells in 10 cm dish and lysed for 5 min. The cells were added with trypan blue and observed under a microscope. More than 90% of the cells were confirmed to be lysed. The cells were centrifuged at 5000 rpm for 10 min, and the supernatant containing SARM1 protein was collected.
The compound was added into a solution of 50 mM Tris-HCl (pH 7.5) containing 0.05 µg/mL SARM1 to achieve a concentration of 200 µM, and then serially diluted 6 times, where each dilution was carried out by taking half of the previous solution and adding an equal volume of 50 mM Tris-HCl (pH 7.5) containing 0.05 µg/mL SARM1, yielding a set of final concentrations of the compound of either 200, 100, 50, 25, 12.5, 6.25 and 3.125 µM, or 200, 50, 12.5, 3.125, 0.78, 0.195 and 0.049 µM. No inhibitor was added in the control group. All mixtures were incubated at room temperature for 10 min.
Subsequently, 50 µM NAD, 50 µM PC6 as substrate and 50 µM NMN as activator were added to the SARM1 protein incubated with the inhibitor and reacted for 30 min at room temperature. Wherein, the aforementioned concentrations of each component represent their respective final concentrations in the reaction system
During the reaction, the fluorescence spectrum dynamics of PC6 was detected by a microplate reader, with excitation and emission wavelengths set at 390 nm and 520 nm, respectively. The activity of the protein was expressed as the reaction rate and half maximal inhibitory concentration was calculated. The higher the reaction rate, the stronger the protein activity, and the lower the inhibitory efficiency of the compound.
Dose-response curves for inhibition of SARM1 enzymatic activity for NAD by the compounds were plotted using the above method.

SMILES | pIC50 [2] | Degree of protection against axonal Wallerian Degeneration [1]
O=C1C(Cc2ccc(Cl)nc2)CCN1c1ccc(-c2ccncc2)cc1 (stereo not drawn) [Compound 25, 3-((6-chloropyridin-3-yl)methyl)-1-(4-(pyridin-4-yl)phenyl)pyrrolidin-2-one] | 5.00 to 6.00 | A ((A) >50%)
O=C1C(Cc2ccccc2)CCN1c1ccc(-c2ccncc2)cc1 (stereo not drawn) [Compound 24, 3-benzyl-1-(4-(pyridin-4-yl)phenyl)pyrrolidin-2-one] | 5.00 to 6.00 | B ((B) 20-50%)
O=C1C(Cc2ccc(Cl)s2)CCN1c1ccc(-c2ccncc2)cc1 (stereo not drawn) [Compound 29, 3-((5-chlorothiophen-2-yl)methyl)-1-(4-(pyridin-4-yl)phenyl)pyrrolidin-2-one] | > 6.00 | A ((A) >50%)
Cc1ccc(CC2CCN(c3ccc(-c4ccncc4)cc3)C2=O)cc1 (stereo not drawn) [Compound 17, 3-(4-methylbenzyl)-1-(4-(pyridin-4-yl)phenyl)pyrrolidin-2-one] | 5.00 to 6.00 | A ((A) >50%)
N#Cc1cc(-c2ccncc2)ccc1N1CCC(Cc2ccc(Cl)cc2)C1=O (stereo not drawn) [Compound 21, 2-(3-(4-chlorobenzyl)-2-pyrrolidinone-1-yl)-5-(pyridin-4-yl)benzonitrile] | 4.52 to 5.00 | B ((B) 20-50%)
O=C1C(Cc2ccc(Cl)cc2)CCN1c1ccc(-c2ccncc2Cl)cc1 (stereo not drawn) [Compound 34, 3-(4-chlorobenzyl)-1-(4-(3-chloropyridin-4-yl)phenyl)pyrrolidin-2-one] | > 6.00 | A ((A) >50%)
O=C1C(Cc2ccc(F)c(F)c2)CCN1c1ccc(-c2ccncc2)nn1 (stereo not drawn) [Compound 67] | > 6.00 | A ((A) >50%)
O=C1C(Cc2ccc(Cl)cc2)CCN1c1ccc(-c2ccncc2)cn1 (stereo not drawn) [Compound 6, 1-([3,4'-bipyridin]-6-yl)-3-(4-chlorobenzyl)pyrrolin-2-one] | 5.00 to 6.00 | A ((A) >50%)
O=C1C(Cc2ccc(Cl)cc2)CCN1c1ccc(-c2ccncc2)cc1 (stereo not drawn) [Compound 1, 3-(4-chlorobenzyl)-1-(4-(pyridin-4-yl)phenyl)pyrrolidin-2-one] | > 6.00 | A ((A) >50%)
O=C1N(c2ccc(-c3ccncc3)cc2)CCC1(O)Cc1ccc(F)c(F)c1 (stereo not drawn) [Compound 84, 3-(3,4-difluorobenzyl)-3-hydroxy-1-(4-(pyridin-4-yl)phenyl)pyrrolidin-2-one] | 5.00 to 6.00 | B ((B) 20-50%)
O=C1C(Cc2ccc(Cl)cc2)CCN1c1cnc(-c2ccncc2)cn1 (stereo not drawn) [Compound 20, 3-(4-chlorobenzyl)-1-(5-(pyridin-4-yl)pyrazin-2-yl)pyrrolidin-2-one] | > 6.00 | B ((B) 20-50%)
O=C1C(Cc2ccc(C(F)(F)F)cc2)CCN1c1ccc(-c2ccncc2)nn1 (stereo not drawn) [Compound 60] | > 6.00 | B ((B) 20-50%)
O=C1C(Cc2ccc(Cl)cc2)CON1c1ccc(-c2ccncc2)cc1 (stereo not drawn) [Compound 3, 4-(4-chlorobenzyl)-2-(4-(pyridin-4-yl)phenyl)isoxazolidin-3-one] | > 6.00 | B ((B) 20-50%)
O=C1C(Cc2ccc(Cl)cc2)CCN1c1ccc(-c2ccncc2)nc1 (stereo not drawn) [Compound 7] | 5.00 to 6.00 | A ((A) >50%)
O=C1C(Cc2ccc(F)cc2F)CCN1c1ccc(-c2ccncc2)nn1 (stereo not drawn) [Compound 70] | > 6.00 | B ((B) 20-50%)

Further lines, with some results ahead:

pIC50 [2] | SMILES | Degree of protection against axonal Wallerian Degeneration [1]
> 6.00 | O=C1C(Cc2ccc(Cl)cc2F)CCN1c1ccc(-c2ccncc2)nn1 (stereo not drawn) [Compound 69] | B ((B) 20-50%)
> 6.00 | O=C1C(Cc2cc(F)c(F)c(F)c2)CCN1c1ccc(-c2ccncc2)cc1 (stereo not drawn) [Compound 72] | A ((A) >50%)
> 6.00 | O=C1C(Cc2ccc(Cl)s2)CCN1c1ccc(-c2ccncc2)nn1 (stereo not drawn) [Compound 66] | A ((A) >50%)
> 6.00 | O=C1[C@H](Cc2ccc(F)c(F)c2)CCN1c1ccc(-c2ccncc2)cc1 (single isomer, unassigned) [Compound 82] | A ((A) >50%)
> 6.00 | S=C1C(Cc2ccc(Cl)cc2)CCN1c1ccc(-c2ccncc2)nn1 (stereo not drawn) [Compound 58, 3-(4-chlorobenzyl)-1-(6-(pyridin-4-yl)pyridazin-3-yl)pyrrolidin-2-thione] | B ((B) 20-50%)
> 6.00 | O=C1N(Cc2ccc(Cl)cc2)CCN1c1ccc(-c2ccncc2)nn1 [Compound 59, 1-(4-chlorobenzyl)-3-(6-(pyridin-4-yl)pyridazin-3-yl)imidazolidin-2-one] | B ((B) 20-50%)
> 6.00 | O=C1C(Cc2ccc(F)c(F)c2)CCN1c1ccc(-c2ccncc2)cc1 (racemic) [Compound 30, 3-(3,4-difluorobenzyl)-1-(4-(pyridin-4-yl)phenyl)pyrrolidin-2-one] | A ((A) >50%)
> 6.00 | [2H]C1(Cc2ccc(F)c(F)c2)CCN(c2ccc(-c3ccncc3)cc2)C1=O (stereo not drawn) [Compound 83, 3-(3,4-difluorobenzyl)-1-(4-(pyridin-4-yl)phenyl)-3-deutero-pyrrolidin-2-one] | A ((A) >50%)
> 6.00 | O=C1C(Cc2ccc(Cl)cc2)CCCN1c1ccc(-c2ccncc2)nn1 (stereo not drawn) [Compound 53, 3-(4-chlorobenzyl)-1-(6-(pyridin-4-yl)pyridazin-3-yl)piperidin-2-one] | B ((B) 20-50%)
